From PubChem BioAssay (NCI)
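Tested at 5 concentrations; 48 h exposure; 96-well plates; endpoints linearly interpolated, else capped at highest concentration. At the GI50, growth is halved. TGI denotes the concentration required for complete inhibition of growth.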

Legend:
Experiment in all cases: growth of human tumour cells (NCI), 48 h
[1] = system: 786-0 renal
[2] = system: A498 renal
[3] = system: A549 NSCLC
[4] = system: ACHN renal
[5] = system: BT-549 breast
[6] = system: CAKI-1 renal
[7] = system: CCRF-CEM leukemia
[8] = system: COLO 205 colon
[9] = system: DU-145 prostate
[10] = system: EKVX NSCLC
[11] = system: HCC-2998 colon
[12] = system: HCT-116 colon
[13] = system: HCT-15 colon
[14] = system: HL-60(TB) leukemia
[15] = system: HOP-62 NSCLC
[16] = system: HOP-92 NSCLC
[17] = system: HS 578T breast
[18] = system: HT29 colon
[19] = system: IGROV1 ovarian
[20] = system: K-562 leukemia
[21] = system: KM12 colon
[22] = system: LOX IMVI melanoma
[23] = system: M14 melanoma
[24] = system: MALME-3M melanoma
[25] = system: MCF7 breast
[26] = system: MDA-MB-231 breast
[27] = system: MDA-MB-435
[28] = system: MDA-N
[29] = system: MOLT-4 leukemia
[30] = system: NCI-H23 lung
[31] = system: NCI-H460 lung
[32] = system: NCI-H522 lung
[33] = system: NCI/ADR-RES ovarian
[34] = system: OVCAR-3 ovarian
[35] = system: OVCAR-4 ovarian
[36] = system: OVCAR-5 ovarian
[37] = system: OVCAR-8 ovarian
[38] = system: PC-3 prostate
[39] = system: RPMI-8226 leukemia
[40] = system: RXF 393 renal
[41] = system: SF-268 CNS
[42] = system: SF-295 CNS
[43] = system: SF-539 CNS
[44] = system: SK-MEL-2 melanoma
[45] = system: SK-MEL-28 melanoma
[46] = system: SK-MEL-5 melanoma
[47] = system: SK-OV-3 ovarian
[48] = system: SN12C renal
[49] = system: SNB-19 CNS
[50] = system: SNB-75 CNS
[51] = system: SR leukemia
[52] = system: SW-620 colon
[53] = system: TK-10 renal
[54] = system: U251 CNS
[55] = system: UACC-257 melanoma
[56] = system: UACC-62 melanoma
[57] = system: UO-31 renal
[58] = system: NCI-H226 lung
[59] = system: T-47D breast

CC[C@@H]1/C=C/C=C/C[C@H](C)[C@@H](O)[C@](C)(O)C(=O)[C@H](C)[C@@H](O)[C@H](C)C(=O)[C@H](C)[C@@H](O)[C@H](C)/C=C/C(=O)O[C@H]2[C@@H](C)[C@@H](CC1)O[C@@]1(CC[C@@H](C)[C@@H](CC(C)O)O1)[C@@H]2C (stereo partly specified)
TGI [1]: 4.45 µM
TGI [2]: 9.12 µM
TGI [3]: 9.1 µM
TGI [4]: 8.69 µM
TGI [5]: 4.94 µM
TGI [6]: 12.7 µM
TGI [7]: 6.05 µM
TGI [8]: 1.99 µM
TGI [9]: 6.76 µM
TGI [10]: 10.8 µM
TGI [11]: 6.68 µM
TGI [12]: 3.11 µM
TGI [13]: 11.3 µM
TGI [14]: 4.25 µM
TGI [15]: 5.47 µM
TGI [16]: 6.11 µM
TGI [17]: > 25.1 µM
TGI [18]: 4.19 µM
TGI [19]: 5.96 µM
TGI [20]: > 38.2 µM
TGI [21]: 11.7 µM
TGI [22]: 4.32 µM
TGI [23]: 6.52 µM
TGI [24]: 15.6 µM
TGI [25]: 7.08 µM
TGI [26]: 6.65 µM
TGI [27]: 6.89 µM
TGI [28]: 6.72 µM
TGI [29]: 6.26 µM
TGI [30]: 7.94 µM
TGI [31]: 4.25 µM
TGI [32]: 3.89 µM
TGI [33]: 5.48 µM
TGI [34]: 3.95 µM
TGI [35]: 9.33 µM
TGI [36]: 7.38 µM
TGI [37]: 8.85 µM
TGI [38]: 5.05 µM
TGI [39]: 10.3 µM
TGI [40]: 4.06 µM
TGI [41]: 12.7 µM
TGI [42]: 9.05 µM
TGI [43]: 10.3 µM
TGI [44]: 8.4 µM
TGI [45]: 25.3 µM
TGI [46]: 1.7 µM
TGI [47]: 14.5 µM
TGI [48]: 4.95 µM
TGI [49]: 19.8 µM
TGI [50]: 9.11 µM
TGI [51]: 13 µM
TGI [52]: > 42 µM
TGI [53]: 12.3 µM
TGI [54]: 11.1 µM
TGI [55]: 3.09 µM
TGI [56]: 6.57 µM
TGI [57]: 12.3 µM

CN(C)CCN1C(=O)c2cccc3cccc(c23)C1=O
GI50 [1]: 24 µM
TGI [1]: > 25 µM
GI50 [2]: 13.4 µM
TGI [2]: > 25 µM
GI50 [3]: 12.9 µM
TGI [3]: > 25 µM
GI50 [4]: 8.29 µM
TGI [4]: > 25 µM
GI50 [5]: > 25 µM
TGI [5]: > 25 µM
GI50 [6]: 5.13 µM
TGI [6]: 17.5 µM
GI50 [7]: 14.5 µM
TGI [7]: > 25 µM
GI50 [8]: 7.04 µM
TGI [8]: > 25 µM
GI50 [9]: 12.4 µM
TGI [9]: > 25 µM
GI50 [10]: > 25 µM
TGI [10]: > 25 µM
GI50 [11]: > 25 µM
TGI [11]: > 25 µM
GI50 [12]: 9.57 µM
TGI [12]: > 25 µM
GI50 [13]: 11.4 µM
TGI [13]: > 25 µM
GI50 [14]: 6.82 µM
TGI [14]: > 25 µM
GI50 [15]: > 25 µM
TGI [15]: > 25 µM
GI50 [16]: 14.8 µM
TGI [16]: > 25 µM
GI50 [17]: > 25 µM
TGI [17]: > 25 µM
GI50 [18]: 11.7 µM
TGI [18]: > 25 µM
GI50 [20]: 9.68 µM
TGI [20]: > 25 µM
GI50 [21]: 12.9 µM
TGI [21]: > 25 µM
GI50 [22]: 10.6 µM
TGI [22]: > 25 µM
GI50 [23]: > 25 µM
TGI [23]: > 25 µM
GI50 [24]: 17.6 µM
TGI [24]: > 25 µM
GI50 [25]: 9.31 µM
TGI [25]: > 25 µM
GI50 [26]: > 25 µM
TGI [26]: > 25 µM
GI50 [27]: > 25 µM
TGI [27]: > 25 µM
GI50 [29]: 6.3 µM
TGI [29]: 16.3 µM
GI50 [58]: 12.2 µM
TGI [58]: > 25 µM
GI50 [30]: > 25 µM
TGI [30]: > 25 µM
GI50 [31]: 8.26 µM
TGI [31]: > 25 µM
GI50 [32]: 15.1 µM
TGI [32]: > 25 µM
GI50 [33]: 19.6 µM
TGI [33]: > 25 µM
GI50 [34]: 21.5 µM
TGI [34]: > 25 µM
GI50 [35]: > 25 µM
TGI [35]: > 25 µM
GI50 [36]: 18.1 µM
TGI [36]: > 25 µM
GI50 [37]: 13.2 µM
TGI [37]: > 25 µM
GI50 [38]: 18.7 µM
TGI [38]: > 25 µM
GI50 [39]: 16.6 µM
TGI [39]: > 25 µM
GI50 [40]: 13.4 µM
TGI [40]: > 25 µM
GI50 [41]: 18.9 µM
TGI [41]: > 25 µM
GI50 [42]: 11.1 µM
TGI [42]: > 25 µM
GI50 [43]: 15.6 µM
TGI [43]: > 25 µM
GI50 [44]: > 25 µM
TGI [44]: > 25 µM
GI50 [45]: > 25 µM
TGI [45]: > 25 µM
GI50 [46]: 18.4 µM
TGI [46]: > 25 µM
GI50 [47]: 24.5 µM
TGI [47]: > 25 µM
GI50 [48]: 12.7 µM
TGI [48]: > 25 µM
GI50 [49]: 22.3 µM
TGI [49]: > 25 µM
GI50 [50]: > 25 µM
TGI [50]: > 25 µM
GI50 [51]: 5.18 µM
TGI [51]: 18.3 µM
GI50 [52]: 11.7 µM
TGI [52]: > 25 µM
GI50 [59]: > 25 µM
TGI [59]: > 25 µM
GI50 [53]: 12.3 µM
TGI [53]: > 25 µM
GI50 [54]: 19.8 µM
TGI [54]: > 25 µM
GI50 [55]: > 25 µM
TGI [55]: > 25 µM
GI50 [56]: 18.1 µM
TGI [56]: > 25 µM
GI50 [57]: 11 µM
TGI [57]: > 25 µM
